Experimental data from patent US20190030036A1, “PHOSPHODIESTERASE INHIBITOR TREATMENT” (Cyrano Therapeutics, Inc., priority 2013, published 2019).

Key:
Type in all cases: in vivo, human
patients with hyposmia [1] = test: Side effects of oral theophylline (Example 1); conditions: oral theophylline 200-800 mg daily in divided doses in middle of meals
Description: Patients were required to take the drug in divided doses in middle of meals (breakfast and lunch).

cAMP = test: Parotid saliva cAMP after oral theophylline (Example 2); conditions: for cAMP: parotid saliva
Procedure: Parotid saliva was collected from each patient by application of a Lashley cup over Stensen's duct with lingual stimulation by placement of concentrated lemon juice. Saliva was collected in plastic tubes and stored at −20° C. until assayed. cAMP and cGMP were measured in saliva by a sensitive 96 plate spectrophotometric assay (R&D Systems, Minneapolis, Minn.).
All patients were placed in a fixed design open label clinical trial with treatment with oral theophylline. Treatment consisted of fixed treatment periods of two-eight months with sequential doses of the drug at 200 mg, 400 mg and 600 mg. At termination of each of these intervals, patients returned to study site for reevaluation. At the end of each interval subjective responses to treatment were measured with a modification of the 0-100 scale previously used. Subjective responses to treatment were graded on a sliding scale from −100−0-+100 with patients recording improvement (+0-+100), no improvement (0) or worsening (0-−100) of their overall smell function. If overall smell function improved ≥5% they were considered to improve clinically (1). If smell function improved <5% they were considered not to improve (1). At the end of each interval subjective measurements of smell function, measurements of DT, RT, ME and H and measurements of parotid saliva for levels of cAMP and cGMP were obtained. In addition, blood plasma was obtained by venipuncture, placed in ice into zinc free tubes which contained 100 mg zinc free heparin, centrifuged at 3000 rpm for 10-20 min, the plasma transferred to plastic PCR tubes and stored at −20° C. until assayed. Theophylline was assayed by a fluorescence polarization assay (Abbott, Chicago, Ill.), as previously described.
Data for the cyclic nucleotides from these 31 patients was not analyzed until the entire study of the 312 patients in Example 1 was assembled and analyzed in its entirety. After completion of these analyses, all data for parotid saliva cAMP and cGMP from all patients in whom salivary cAMP and cGMP were obtained were assembled. Levels of salivary cyclic nucleotides varied widely. Initially, without external criteria, there was no way to understand these disparate data. […] In a similar manner, measurements of each patient's plasma theophylline level at each dosage of theophylline (at 200 mg, 400 mg, 600 mg of theophylline) were categorized. The two patient groups were also analyzed post hoc with respect to type of smell loss and etiology of smell loss.

patients with hyposmia [2] = test: Side effects of intranasal theophylline (Example 7); conditions: intranasal theophylline 20 μg per naris once a day
Description: Ten hyposmia patients were enrolled in the study; eight patients have completed all four phases of the study with the remaining two patients still in process.

[3] = system: patients with hyposmia and hypogeusia; test: Gustometry (DT, RT, ME, HR for 4 tastants) (Example 8)
Description: (§1) Measurements included determination of detection thresholds (DTs), recognition thresholds (RTs), magnitude estimation (ME), and hedonic response (HR) for 4 odors (e.g., pyridine [dead fish], nitrobenzene [bitter almond], thiophene [petroleum], and amyl acetate [banana oil]) (olfactometry) and for 4 tastants (e.g., sodium chloride [salt], sucrose [sweet], […] [sour], and urea [bitter]) (gustometry).

[4] = system: patients with hyposmia and hypogeusia; test: Olfactometry (DT, RT, ME, HR for 4 odors) (Example 8); conditions: intranasal theophylline vs before treatment or after oral theophylline
Description: as §1

hyposmic patients = test: Smell acuity in open label trial of inhalable/nasal PDE inhibitor (Examples 3, 4); conditions: nasal theophylline, not more than 500 μg, 1 month
Procedure: Hyposmic patients for whom the etiology of smell loss is not associated with head injury or allergic rhinitis are enrolled in an open label trial of inhalable theophylline. Patients are started at an initial dose of not more than 500 μg formulated as a liquid spray or dry powder to be delivered as a metered dose. Initially only local patients are enrolled so that quicker dose titration is achieved. Groups of 5 patients are started on not more than 500 μg of theophylline and continued for 1 month.
Patients are tested for improvement in smell acuity using the standard forced choice technique using four odors as described in Example 1. Additionally, subjective measurements of smell function are obtained using a scale from 0-100 as described in Example 1. Blood samples are also drawn to ascertain blood theophylline level to gauge its relationship to the expected recovery of smell.
Hyposmic patients for whom the etiology of smell loss is not associated with head injury or allergic rhinitis are enrolled in an open label trial of an inhalable PDE1 inhibitor. […]

Cn1c(=O)c2[nH]cnc2n(C)c1=O [theophylline]
Side effects (patients with hyposmia [1]): generally minimal
increase of saliva cAMP levels above baseline (cAMP; oral theophylline 200 mg, improved patients, not significant): 10%
increase of saliva cAMP levels over baseline (cAMP; oral theophylline 400 mg, improved group, not statistically significant): 40%
increase of saliva cAMP levels above initial values (cAMP; oral theophylline 600 mg, improved patients, significant): 67%
cAMP (cAMP; oral theophylline 200 mg, patients with improved smell function (16)): 0.96 ± 0.13 pmol/mL
cAMP (cAMP; oral theophylline 200 mg, patients with unimproved smell function (9)): 0.78 ± 0.26 pmol/mL
cAMP (cAMP; oral theophylline 400 mg, patients with improved smell function (12)): 1.22 ± 0.33 pmol/mL
cAMP (cAMP; oral theophylline 400 mg, patients with unimproved smell function (5)): 0.95 ± 0.26 pmol/mL
cAMP (cAMP; oral theophylline 600 mg, patients with unimproved smell function (9)): 0.56 ± 0.21 pmol/mL
side effects of intranasal use (patients with hyposmia [2]): No side effects
Magnitude estimations for all tastants ([3]; intranasal theophylline vs before any treatment or after oral theophylline): higher (more intense)
DTs and RTs for all tastants ([3]; intranasal theophylline vs before treatment or after oral theophylline): lower (more sensitive)
DTs and RTs for each odor [4]: lower (more sensitive)
Magnitude estimations for each odor [4]: higher (more intense)
recovery of smell acuity compared with oral administration (hyposmic patients): at least an equivalent recovery of smell acuity
